From publication PMC9510668 (Frontiers in Pharmacology, 2022)
Converted amounts (≈) assume the structure as drawn. Where two headings read alike, the source gives them in different places.

Tests used:
[1] = cited from earlier work
CYP3A4 = conditions: ref Food and Drug Administration, 2009; Yamada et al., 2020; cited from earlier work
[2] = Equilibrium solubility in pH buffers and biorelevant media; format: physicochemical
Procedure: After incubation of 2 h, 1 ml aliquot of each sample was withdrawn from the tube. The samples were filtered using a 0.22 μm filter, the first 0.8 ml was discarded, and the remaining 0.2 ml was analyzed by the HPLC. The specific experiments containing different conditions are as follows: • i) Solubility testing in simulated fasted and fed media
Specifically, solubility media were prepared using different phosphate buffers. Media pH was adjusted to the required value (Table 1, target value) using KOH or H3PO4, which were equal to the pH value of gastrointestinal tract compartment in a fasted and fed state in humans, respectively. • ii) Biorelevant solubility

[3] = 400 mg twice daily for 21 consecutive days, Day 22, ref Hurwitz et al., 2009
[4] = 400 mg whole tablet, ref Heath et al., 2012
[5] = 600 mg OD for 21 consecutive days, Day 1, ref Hurwitz et al., 2009
[6] = 600 mg OD for 21 consecutive days, Day 22, ref Hurwitz et al., 2009
[7] = 800 mg OD for 21 consecutive days, Day 1, ref Hurwitz et al., 2009
[8] = 800 mg OD for 21 consecutive days, Day 22, ref Hurwitz et al., 2009
[9] = 1000 mg OD for 21 consecutive days, Day 1, ref Hurwitz et al., 2009
[10] = 1000 mg OD for 21 consecutive days, Day 22, ref Hurwitz et al., 2009
[11] = 1400 mg OD for 21 consecutive days, Day 1, ref Hurwitz et al., 2009
[12] = 1400 mg OD for 21 consecutive days, Day 22, ref Hurwitz et al., 2009
[13] = 2000 mg OD for 21 consecutive days, Day 1, ref Hurwitz et al., 2009
[14] = 2000 mg OD for 21 consecutive days, Day 22, ref Hurwitz et al., 2009

solubility at 2 h ([2]; 37 °C, pH 1.3, fassgf or other biorelevant, thermodynamic from solid, FaSSGF-PH1.3, read-out: Solubility (mean ± SD) at fasted state): 436.1 ± 1 µg/mL (≈ 997 µM) | solubility at 2 h ([2]; 37 °C, pH 4.5, fassgf or other biorelevant, thermodynamic from solid, FEDGAS-PH4.5, read-out: Solubility (mean ± SD) at fed state): 147 ± 1.9 µg/mL (≈ 336 µM) | solubility at 2 h ([2]; 37 °C, pH 5.8, thermodynamic from solid, FeSSIF-V2-PH5.8, read-out: Solubility (mean ± SD) at fed state): 6.5 ± 1.3 µg/mL (≈ 14.9 µM) | solubility at 2 h ([2]; FEGGAS medium, 37 °C, fassgf or other biorelevant, thermodynamic from solid, fed state, used for food simulation, read-out: Mean value of the three solubility in the FEGGAS medium): 167 µg/mL (≈ 381 µM) | solubility at 2 h ([2]; pH 3, FEDGAS-PH3.0, read-out: Solubility (mean ± SD) at fed state): 322.7 ± 2.6 µg/mL (≈ 738 µM) | solubility at 2 h ([2]; pH 4.78, FaSSGF-PH4.78 (elevated gastric pH after esomeprazole), read-out: Solubility (mean ± SD) at fasted state): 46.1 ± 3.4 µg/mL (≈ 105 µM) | solubility at 2 h ([2]; pH 4.9, FEDGAS-PH4.9, read-out: Solubility (mean ± SD) at fed state): 40 ± 0.7 µg/mL (≈ 91.4 µM) | solubility at 2 h ([2]; pH 6.5, FaSSIF-V2-PH6.5, read-out: Solubility (mean ± SD) at fasted state): 0.63 ± 0.18 µg/mL (≈ 1.44 µM) | Solubility ([2]; pH ≥ 7.0): cannot even be detected | solubility at 2 h ([2]; phosphate buffer, 37 °C, pH 3, aqueous buffer, thermodynamic from solid, PH3.0, read-out: Solubility (mean ± SD) at fasted state): 391 ± 4.6 µg/mL (≈ 895 µM) | solubility at 2 h ([2]; phosphate buffer, 37 °C, pH 4.5, aqueous buffer, thermodynamic from solid, PH4.5, read-out: Solubility (mean ± SD) at fasted state): 68.3 ± 3.3 µg/mL (≈ 156 µM) | solubility at 2 h ([2]; phosphate buffer, 37 °C, pH 5, aqueous buffer, thermodynamic from solid, PH5.0, read-out: Solubility (mean ± SD) at fasted state): 24.2 ± 2.3 µg/mL (≈ 55.3 µM) | solubility at 2 h ([2]; phosphate buffer, 37 °C, pH 6, aqueous buffer, thermodynamic from solid, PH6.0, read-out: Solubility (mean ± SD) at fasted state): 7.6 ± 0.6 µg/mL (≈ 17.4 µM) | solubility at 2 h ([2]; phosphate buffer, 37 °C, pH 7, aqueous buffer, thermodynamic from solid, PH7.0, read-out: Solubility (mean ± SD) at fasted state): < 0.27 µg/mL | solubility at 2 h ([2]; phosphate buffer, 37 °C, pH 7.5, aqueous buffer, thermodynamic from solid, PH7.5, read-out: Solubility (mean ± SD) at fasted state): < 0.27 µg/mL | solubility at 2 h ([2]; phosphate buffer, pH 2, PH2.0, read-out: Solubility (mean ± SD) at fasted state): 263.9 ± 1.1 µg/mL (≈ 603 µM)
Compound: Cc1ccc(Nc2nccc(N(C)c3ccc4c(C)n(C)nc4c3)n2)cc1S(N)(=O)=O [PAZ, pazopanib]
Cmax, Observation [1, 3]: 36.1 µg/mL | Ctrough, Observation [1, 3]: 28100 ng/mL | Tmax, Observation [1, 3]: 3.1 h | AUC0-72, Observation [1, 4]: 410.3 (NC) μg h mL^−1 | C24, Observation [1, 4]: 7.6 (NC) μg mL^−1 | Cmax, Observation [1, 4]: 12.4 (NC) μg mL^−1 | Tmax, Observation [1, 4]: 3.8 h | AUC0-24, Observation [1, 5]: 157.6 µg·h/mL | Cmax, Observation [1, 5]: 11.2 µg/mL | Ctrough, Observation [1, 5]: 4700 ng/mL | Tmax, Observation [1, 5]: 3.0 h | AUC504-528, Observation [1, 6]: 333.7 µg·h/mL | Cmax, Observation [1, 6]: 18.2 µg/mL | Ctrough, Observation [1, 6]: 11000 ng/mL | Tmax, Observation [1, 6]: 6.0 h | AUC0-24, Observation [1, 7]: 275.1 µg·h/mL | Cmax, Observation [1, 7]: 19.4 µg/mL | Ctrough, Observation [1, 7]: 9400 ng/mL | Tmax, Observation [1, 7]: 3.5 h | AUC504-528, Observation [1, 8]: 743.3 µg·h/mL | Cmax, Observation [1, 8]: 45.1 µg/mL | Ctrough, Observation [1, 8]: 24000 ng/mL | Tmax, Observation [1, 8]: 2.0 h | AUC0-24, Observation [1, 9]: 400.0 µg·h/mL | Cmax, Observation [1, 9]: 36.1 µg/mL | Ctrough, Observation [1, 9]: 12200 ng/mL | Tmax, Observation [1, 9]: 2.0 h | AUC504-528, Observation [1, 10]: 796.1 µg·h/mL | Cmax, Observation [1, 10]: 53.2 µg/mL | Ctrough, Observation [1, 10]: 28800 ng/mL | Tmax, Observation [1, 10]: 4.5 h | AUC0-24, Observation [1, 11]: 291.6 µg·h/mL | Cmax, Observation [1, 11]: 20.8 µg/mL | Ctrough, Observation [1, 11]: 8200 ng/mL | Tmax, Observation [1, 11]: 3.0 h | AUC504-528, Observation [1, 12]: 536.2 µg·h/mL | Cmax, Observation [1, 12]: 32.7 µg/mL | Ctrough, Observation [1, 12]: 16600 ng/mL | Tmax, Observation [1, 12]: 2.0 h | AUC0-24, Observation [1, 13]: 681.2 µg·h/mL | Cmax, Observation [1, 13]: 44.5 µg/mL | Ctrough, Observation [1, 13]: 12200 ng/mL | Tmax, Observation [1, 13]: 4.0 h | AUC504-528, Observation [1, 14]: 860.3 µg·h/mL | Cmax, Observation [1, 14]: 52.7 µg/mL | Ctrough, Observation [1, 14]: 28800 ng/mL | Tmax, Observation [1, 14]: 3.0 h | Slope of AUC vs dose, clinically determined value ([1]; ref Food and Drug Administration, 2009): 0.46 | Inhibitor of CYP3A4 (CYP3A4): weak inhibitor | Solubility (mean ± SD) at fed state ([2]; PH7.0): N (Not detected (below the detection limit)) | Solubility (mean ± SD) at fed state ([2]; PH7.5): N (Not detected (below the detection limit))
